Key:
Parameters in all cases: reference not given here
HL-60 = experiment: Compound was evaluated for HL-60 cell differentiation which was assessed in terms of expression of antigen CD11b; format: functional, Homo sapiens
Rattus norvegicus = species: Rattus norvegicus; experiment: Compound was evaluated for calcium mobilizing activity in rat serum; format: functional
[1] = target: T1, Vitamin D3 receptor (Bos taurus) (UniProt Q28037); experiment: Binding affinity for bovine thymus vitamin D receptor (VDR)
T1 sequence (whole entry): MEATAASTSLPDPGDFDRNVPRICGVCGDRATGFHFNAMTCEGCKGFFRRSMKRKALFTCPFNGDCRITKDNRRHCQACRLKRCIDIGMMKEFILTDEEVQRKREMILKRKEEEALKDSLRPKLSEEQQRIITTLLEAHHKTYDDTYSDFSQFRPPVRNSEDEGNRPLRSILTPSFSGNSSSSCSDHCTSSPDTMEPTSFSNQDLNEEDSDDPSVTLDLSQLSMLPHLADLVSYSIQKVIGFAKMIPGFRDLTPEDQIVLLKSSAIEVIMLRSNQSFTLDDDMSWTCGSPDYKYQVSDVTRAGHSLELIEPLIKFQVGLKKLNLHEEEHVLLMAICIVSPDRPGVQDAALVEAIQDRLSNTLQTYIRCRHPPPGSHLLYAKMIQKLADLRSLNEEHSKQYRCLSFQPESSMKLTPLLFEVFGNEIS

[2] = target: T2, Vitamin D-binding protein (Rattus norvegicus) (UniProt P04276); experiment: Compound was tested for binding affinity against rat serum DBP (vitamin D binding protein); format: cell-free
T2 sequence (whole entry): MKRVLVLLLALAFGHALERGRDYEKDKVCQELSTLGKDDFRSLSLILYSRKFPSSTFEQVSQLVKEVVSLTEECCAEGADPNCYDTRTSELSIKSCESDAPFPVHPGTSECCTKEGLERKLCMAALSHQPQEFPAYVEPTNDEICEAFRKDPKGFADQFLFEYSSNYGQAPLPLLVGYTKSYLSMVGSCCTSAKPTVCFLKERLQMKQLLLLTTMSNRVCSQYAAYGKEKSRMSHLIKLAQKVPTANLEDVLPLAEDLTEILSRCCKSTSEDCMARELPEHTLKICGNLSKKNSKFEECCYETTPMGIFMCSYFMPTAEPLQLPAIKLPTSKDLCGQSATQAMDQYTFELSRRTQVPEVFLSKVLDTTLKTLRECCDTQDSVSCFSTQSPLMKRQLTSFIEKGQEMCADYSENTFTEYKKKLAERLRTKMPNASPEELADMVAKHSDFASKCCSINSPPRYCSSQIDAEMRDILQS

Row | Activity [1] | Activity [2] | Compound | Activity (HL-60) | Activity (Rattus norvegicus)
1 | 70 | 74 | C=C1/C(=C\C=C2/CCC[C@]3(C)[C@@H]([C@H](C)CCCC(C)(C)O)CC[C@@H]23)C[C@@H](O)[C@H](CCO)[C@@H]1O | 86 | 372
2 | 20 | 21 | C=C1/C(=C\C=C2/CCC[C@]3(C)[C@@H]([C@H](C)CCCC(C)(C)O)CC[C@@H]23)C[C@@H](O)[C@H](CCC)[C@@H]1O | 44 | 636
3 | 400 | 44 | C=C1/C(=C\C=C2/CCC[C@]3(C)[C@@H]([C@H](C)CCCC(C)(C)O)CC[C@@H]23)C[C@@H](O)[C@H](C)[C@@H]1O | 444 | 658
4 | 300 | 362 | C=C1/C(=C\C=C2/CCC[C@]3(C)[C@@H]([C@H](C)CCCC(C)(C)O)CC[C@@H]23)C[C@@H](O)[C@H](CCCO)[C@@H]1O | 240 | 50866
5 | 20 | 95 | C=C1/C(=C\C=C2/CCC[C@]3(C)[C@@H]([C@H](C)CCCC(C)(C)O)CC[C@@H]23)C[C@@H](O)[C@H](CO)[C@@H]1O | 10 | 124
6 | 40 | 48 | C=C1/C(=C\C=C2/CCC[C@]3(C)[C@@H]([C@H](C)CCCC(C)(C)O)CC[C@@H]23)C[C@@H](O)[C@H](CC)[C@@H]1O | 106 | 68
7 | 100 | 100 | C=C1/C(=C\C=C2/CCC[C@]3(C)[C@@H]([C@H](C)CCCC(C)(C)O)CC[C@@H]23)C[C@@H](O)C[C@@H]1O [CALCITRIOL] | 100 | 100
